In ChEMBL document CHEMBL1772937, “Fingolimod (FTY720): a recently approved multiple sclerosis drug based on a fungal secondary metabolite” (J Nat Prod, 2011):
pIC50: −log10 of the molar value. Calls of active or inactive are those of the source. The calls are words filed in the database; no cut-off is given here.

How the values were obtained:
[1] = system: Rattus norvegicus; assay: Toxicity in ip dosed F344 rat lateral thorax transplanted with dorsal skin of LEW rat assessed as concentration required for cause death; format: organism-based; conditions: in vivo
[2] = system: spleen; assay: Inhibition of serine palmitoyltransferase in mouse spleen cells; format: cell-based
[3] = system: Rattus norvegicus; assay: Immunosuppressive activity in F344 rat lateral thorax transplanted with dorsal skin of LEW rat assessed as increase of skin graft survival time at 1 mg/kg, ip; format: functional; conditions: route intraperitoneal
[4] = system: Rattus norvegicus; assay: Immunosuppressive activity in F344 rat lateral thorax transplanted with dorsal skin of LEW rat assessed as increase of skin graft survival time at 3 mg/kg, ip; format: functional; conditions: route intraperitoneal
[5] = system: MCF7; assay: Antiproliferative activity against human MCF7 cells assessed as growth inhibition after 78 hrs by WST-1 assay; format: functional, cell-based
[6] = system: LNCAP-AI; assay: (§1) Antiproliferative activity human LNCAP-AI cells assessed as growth inhibition after 78 hrs by WST-1 assay; format: functional, cell-based
[7] = system: HCT-116; assay: Antiproliferative activity against human HCT116 cells assessed as growth inhibition after 78 hrs by WST-1 assay; format: functional, cell-based
[8] = system: MDA-MB-231; assay: Antiproliferative activity against human MDA-MB-231 cells assessed as growth inhibition after 78 hrs by WST-1 assay; format: functional, cell-based
[9] = system: SK-BR-3; assay: Antiproliferative activity against human SK-BR-3 cells assessed as growth inhibition after 78 hrs by WST-1 assay; format: functional, cell-based
[10] = system: SW-620; assay: Antiproliferative activity against human SW620 cells assessed as growth inhibition after 78 hrs by WST-1 assay; format: functional, cell-based
[11] = system: MGC-803; assay: Antitumor activity against human MGC803 cells xenografted in nude mouse assessed as inhibition of tumor growth at 10 mg/kg for 20 days; format: functional, organism-based; parameters: dose 10 mg/kg
[12] = system: Mus musculus; assay: Toxicity in human MGC803 cells xenografted nude mouse at 10 mg/kg for 20 days; format: organism-based, MGC-803; parameters: dose 10 mg/kg; conditions: in vivo, 480 h
[13] = as §1; format: functional, cell-based
[14] = Immunosuppressive activity in BALB/c/C57BL/6 mouse T cells assessed as inhibition of alloantigen-induced cell proliferation after 96 hrs by measuring [3H]thymidine uptake by mixed lymphocyte reaction assay; format: functional, cell-based; conditions: BALB/c/C57BL/6, T-cell
[15] = system: Rattus norvegicus; assay: Immunosuppressive activity in rat assessed as increase of skin graft survival time at 0.1 mg/kg; format: functional

## CCCCCCCCCCCCCCCCCCC(N)(CO)CO
[1]
  Activity: 10 mg/kg

## CCCCCCCCCCCCCCC(N)(CO)CO
[1]
  Activity: 10 mg/kg
[2]
  inhibition: inactive
[3]
  Time: 37.3 days
[4]
  Time: 45.5 days

## CCCCCCC(O)CCCCCCCCC[C@@H](O)[C@H](O)C(N)(CO)CO (stereo partly drawn)
[1]
  Activity: 100 mg/kg
[3]
  Time: 9.2 days
[4]
  Time: 11 days

## CCCCCCCCc1ccc(CC[C@](N)(/C=C/P(=O)(O)O)CO)cc1
[5]
  growth inhibition (GI): inactive
[6]
  growth inhibition (GI): inactive

## CCCCCCCCc1ccc(CC[C@](N)(CO)COP(=O)(O)O)cc1
[7]
  growth inhibition (GI): inactive
[5]
  growth inhibition (GI): inactive
[8]
  growth inhibition (GI): inactive
[9]
  growth inhibition (GI): inactive
[10]
  growth inhibition (GI): inactive

## C/C=C/C[C@@H](C)[C@@H](O)[C@H]1C(=O)N[C@@H](CC)C(=O)N(C)CC(=O)N(C)[C@@H](CC(C)C)C(=O)N[C@@H](C(C)C)C(=O)N(C)[C@@H](CC(C)C)C(=O)N[C@@H](C)C(=O)N[C@H](C)C(=O)N(C)[C@@H](CC(C)C)C(=O)N(C)[C@@H](CC(C)C)C(=O)N(C)[C@@H](C(C)C)C(=O)N1C [CYCLOSPORINE]
[3]
  Time: 7.3 days
[4]
  Time: 10.8 days

## CCCCCCCCc1ccc(CCC(N)(CO)CO)cc1 [FINGOLIMOD]
[7]; HCT-116, 78 h
  pIC50: 5.30
[5]; MCF7, 78 h
  pIC50: 5.30
[8]; MDA-MB-231, 78 h
  pIC50: 5.30
[11]
  growth inhibition (GI): Active
[9]; SK-BR-3, 78 h
  pIC50: 5.30
[12]
  Activity: Toxic
[2]
  inhibition: inactive
[10]; SW-620, 78 h
  pIC50: 5.30
[3]
  Time: 39.5 days
[13]
  pIC50: 5.30
[4]
  Time: 52 days
[14]
  pIC50: 8.21

## CCCCCCC(=O)CCCCCC/C=C/C[C@@H](O)[C@H](O)[C@@](N)(CO)C(=O)O [MYRIOCIN]
[1]
  Activity: 1 mg/kg
[15]
  Time: 2 days
[2]
  inhibition: Active
[14]
  pIC50: 8.52
